What all share (assay type): cell-based
For assay [1], the system named is T-Rex 293 cells having increased expression of estrogen receptor alpha protein. Description: Cellular growth inhibition assay, T-Rex 293 cells, (+) doxycycline. As to conditions: T-REx-293, 72 h, Table 7-B; T-Rex 293 cells with doxycycline (increased ERα expression); 72 hours; CellTiter-Glo; read-out: (+) Dox GI50. In a few lines:
(§1)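 Cells of an inducible ERα-expressing T-Rex 293 clone are seeded in charcoal-dextran FBS medium with or without 3 ng/mL doxycycline, then treated after 24 h with compound dilutions (0.5% DMSO) for 72 h. Growth inhibition is measured by CellTiter-Glo luminescence and expressed as GI50.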

The subject of assay [2] is MCF7 cells (ECACC #86012803). The assay can be described thus: Cellular growth inhibition assay, MCF7 cells purchased from ECACC. The following applies: Homo sapiens, 144 h; MCF7 cells purchased from ECACC (#86012803); six days treatment; CellTiter-Glo 2.0 viability. How it is done: Exemplary compounds were tested for the ability to inhibit the proliferation of MCF7 cells.
MCF7 cells (ATCC #HTB-22 or ECACC #86012803) were cultured in RPMI 1640 medium supplemented with 10% heat-inactivated fetal bovine serum, 1% pen-strep, and 0.2 U/ml insulin. Cells were seeded in 25 μL of RPMI 1640 medium supplemented with 10% heat-inactivated fetal bovine serum, 1% pen-strep, 0.2 U/ml insulin in poly-D-lysine treated, black clear-bottom 384-well plates at 225 cells/well for MCF7 cells purchased from ECACC or 1,500 cells/well for MCF7 cells purchased from ATCC. Following seeding, plates were spun at 300×g for 30 seconds and cultured at 37° C. with 5% CO2 in a humidified tissue culture incubator.
At 24 hours after seeding, compounds were titrated in 100% DMSO and diluted in RPMI 1640 medium supplemented with 10% heat-inactivate fetal bovine serum, 1% pen-strep, and 0.2 U/ml insulin. A 25 μL aliquot of the compound/media mixture was added to cells, bringing the total volume in each well to 50 μL. An equal volume of DMSO without compound was used as a negative control. After treatment, plates were spun at 300×g for 30 seconds, then cultured at 37° C. with 5% CO2 for six days in a humidified tissue culture incubator.
On Day 6 of treatment, cell viability was quantified with CellTiter-Glo 2.0 reagent (Promega). Plates were equilibrated to room temperature for 30 minutes, then 25 μL of CellTiter-Glo 2.0 reagent was added to cells, bringing the total volume in each well to 75 μL. After reagent was added, plates were mixed on a shaker for two minutes at 500 rpm and then incubated at room temperature for 10 minutes. Following incubation, plates were spun at 3,000×g for 30 seconds, sealed with an optical adhesive cover, and luminescence readings were measured with an EnVision Plate Reader.
Data was normalized to 0 luminescence for baseline. A four-parameter, non-linear regression curve fit was applied to dose-response data in GraphPad Prism data analysis software to determine the half maximal growth inhibitory concentration (GI50) for each compound.
On the technique in general: Cellular ATP, detected with luciferase, serves as a proxy for viable cell number.

Assay [3] relates to T-Rex 293 cells lacking increased expression of estrogen receptor alpha protein. The assay can be described thus: Cellular growth inhibition assay, T-Rex 293 cells, (−) doxycycline. As to conditions: T-REx-293, 72 h, Table 7-B; T-Rex 293 cells without doxycycline (lacking increased ERα expression); 72 hours; CellTiter-Glo; read-out: (−) Dox GI50. In a few lines: as §1
The subject of assay [4] is MCF7 cells (ATCC #HTB-22). Description: Cellular growth inhibition assay, MCF7 cells purchased from ATCC. As to conditions: Homo sapiens, MCF7, 144 h, Table 8-A; MCF7 cells purchased from ATCC; six days; CellTiter-Glo; read-out: GI50. In a few lines:
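GI50 values come from a four-parameter fit of CellTiter-Glo 2.0 luminescence after six days of compound exposure at 37° C. Seeding density depended on the source: 225 cells/well for ECACC MCF7, 1,500 for ATCC. Medium was RPMI 1640 with 10% FBS and 0.2 U/ml insulin.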

SMILES strings stand for the structures.

The source of these data is US12558428B2, “Heterobifunctional compounds and their use in treating disease” (Halda Therapeutics OpCo, Inc., priority 2024, dated 2026).

As a reminder, the GI50 is the concentration at which growth is held to half of that of the control.

Turning to `COc1cc(N2CCN(CC3(O)CCN(c4ccc(C5=N[C@@H](C)c6nnc(C)n6-c6sc(C)c(C)c65)cc4)CC3)CC2)ccc1[C@H]1c2ccc(O)cc2CC[C@H]1c1ccc(C(F)(F)F)cc1` [III-348], the GI50 in assay [1], in assay [2] and in assay [3] was 0.5 to 2.5 µM throughout.

As to `COc1cc(N2CCN(CC3(O)CCN(c4ccc(C5=N[C@@H](C)c6nnc(C)n6-c6sc(C)c(C)c65)cc4)CC3)CC2)ccc1[C@@H]1c2ccc(O)cc2CC[C@@H]1c1ccc(C(F)(F)F)cc1` [III-349], the GI50 in assay [1] was < 0.05 µM; in assay [2], < 0.05 µM; in assay [3], 0.5 to 2.5 µM.

Regarding `COc1cc(N2CCN(CC3CCN(c4ccc(C5=N[C@@H](C)c6nnc(C)n6-c6sc(C)c(C)c65)c(F)c4)CC3)CC2)ccc1[C@H]1c2ccc(O)cc2CC[C@H]1c1ccc(C(F)(F)F)cc1` [III-350], the GI50 in assay [1] was > 2.5 µM; in assay [2], 0.05 to 0.5 µM; in assay [3], > 2.5 µM.

With `COc1cc(N2CCN(CC3CCN(c4ccc(C5=N[C@@H](C)c6nnc(C)n6-c6sc(C)c(C)c65)c(F)c4)CC3)CC2)ccc1[C@@H]1c2ccc(O)cc2CC[C@@H]1c1ccc(C(F)(F)F)cc1` [III-351], the GI50 in assay [1] is < 0.05 µM; in assay [2] it was < 0.05 µM; in assay [3], > 2.5 µM.

Regarding `COc1cc(N2CCC(O)(CN3CCN(c4ccc([C@H]5c6ccc(O)cc6CC[C@@H]5c5ccc(F)cc5)cc4F)CC3)CC2)ccc1C1=N[C@@H](C)c2nnc(C)n2-c2sc(C)c(C)c21` [III-352], the GI50 in assay [1] is < 0.05 µM; in assay [2], < 0.05 µM; in assay [3] it was 0.5 to 2.5 µM.

As for `COc1cc(N2CCC(O)(CN3CCN(c4ccc([C@H]5c6ccc(O)cc6CC[C@H]5c5ccc(F)cc5)cc4F)CC3)CC2)ccc1C1=N[C@@H](C)c2nnc(C)n2-c2sc(C)c(C)c21` [III-353], the figures for the GI50 in assay [1], in assay [2] and in assay [3] were 0.05 to 0.5 µM, 0.05 to 0.5 µM and 0.5 to 2.5 µM, respectively.

In the case of `COc1cc(N2CCN(CC3(O)CCN(c4ccc(C5=N[C@@H](C)c6nnc(C)n6-c6sc(C)c(C)c65)c(F)c4)CC3)CC2)ccc1[C@H]1c2ccc(O)cc2CC[C@H]1c1ccc(C(F)(F)F)cc1` [III-354], the GI50 in assay [1] is 0.05 to 0.5 µM; in assay [2], 0.05 to 0.5 µM; in assay [3], 0.5 to 2.5 µM.

As to `COc1cc(N2CCN(CC3(O)CCN(c4ccc(C5=N[C@@H](C)c6nnc(C)n6-c6sc(C)c(C)c65)c(F)c4)CC3)CC2)ccc1[C@@H]1c2ccc(O)cc2CC[C@@H]1c1ccc(C(F)(F)F)cc1` [III-355], the figures for the concentration for 50% growth inhibition (GI50) in assay [1], in assay [2] and in assay [3] were < 0.05 µM, < 0.05 µM and 0.5 to 2.5 µM, respectively.

As for `COc1cc(N2CCC(O)(CN3CCN(c4cc(F)c([C@@H]5c6ccc(O)cc6CC[C@@H]5c5ccccc5)cc4F)CC3)CC2)ccc1C1=N[C@@H](C)c2nnc(C)n2-c2sc(C)c(C)c21` [III-356], the results for the GI50 in assay [1], in assay [2] and in assay [3] were < 0.05 µM, 0.05 to 0.5 µM and 0.5 to 2.5 µM, respectively.

Consider `COc1cc(N2CCC(O)(CN3CCN(c4cc(F)c([C@H]5c6ccc(O)cc6CC[C@H]5c5ccccc5)cc4F)CC3)CC2)ccc1C1=N[C@@H](C)c2nnc(C)n2-c2sc(C)c(C)c21` [III-357], for which the GI50 in assay [1] is 0.05 to 0.5 µM; in assay [2] it was 0.05 to 0.5 µM; in assay [3], 0.5 to 2.5 µM.

For `COc1cc(N2CCC(O)(CN3CCN(c4cc(F)c([C@@H]5c6ccc(O)cc6CC[C@@H]5c5ccc(F)cc5)c(F)c4)CC3)CC2)ccc1C1=N[C@@H](C)c2nnc(C)n2-c2sc(C)c(C)c21` [III-358], the GI50 was < 0.05 µM in assay [1], < 0.05 µM in assay [2] and 0.5 to 2.5 µM in assay [3].

For the compound `COc1cc(N2CCC(O)(CN3CCC(c4cc(F)c([C@H]5c6ccc(O)cc6CC[C@H]5c5ccc(F)cc5)c(F)c4)CC3)CC2)ccc1C1=N[C@@H](C)c2nnc(C)n2-c2sc(C)c(C)c21` [III-359], the concentration for 50% growth inhibition (GI50) in assay [1] was in the range of 0.05 to 0.5 µM; in assay [2], 0.05 to 0.5 µM; in assay [3], 0.5 to 2.5 µM.

Turning to `COc1cc(N2CCN(CC3(O)CCN(c4ccc(C5=N[C@@H](C)c6nnc(C)n6-c6sc(C)c(C)c65)cc4)CC3)CC2)ccc1C1=C(c2ccccc2)CCCc2cc(C(=O)O)ccc21` [IV-66], the GI50 was < 0.05 µM in assay [1], < 0.05 µM in assay [2] and 0.5 to 2.5 µM in assay [3].

As for `Cc1sc2c(c1C)C(c1ccc(N3CCC(O)(CN4CCN(c5cc(F)c(C6=C(c7ccccc7)CCCc7cc(C(=O)O)ccc76)cc5F)CC4)CC3)cc1)=N[C@@H](C)c1nnc(C)n1-2` [IV-67], the GI50 in assay [1] is < 0.05 µM; in assay [2], < 0.05 µM; in assay [3] it was 0.5 to 2.5 µM.

Turning to `COc1cc(N2CCN(CC3(O)CCN(c4ccc(C5=N[C@@H](C)c6nnc(C)n6-c6sc(C)c(C)c65)cc4)CC3)CC2)c(F)cc1C1=C(c2ccccc2F)CCCc2cc(C(=O)O)ccc21` [IV-68], the GI50 was < 0.05 µM in assay [1], < 0.05 µM in assay [2] and 0.5 to 2.5 µM in assay [3].

Regarding `Cc1sc2c(c1C)C(c1ccc(N3CCC(O)(CN4CCN(c5cc(F)c(C6=C(c7ccccc7)CCCc7cc(C(=O)O)ccc76)c(F)c5)CC4)CC3)cc1)=N[C@@H](C)c1nnc(C)n1-2` [IV-69], the figures for the GI50 in assay [1], in assay [2] and in assay [3] were < 0.05 µM, < 0.05 µM and 0.5 to 2.5 µM, respectively.

Consider `Cc1sc2c(c1C)C(c1ccc(N3CC(CN4CCN(CC5CN(c6cc(F)c(C7=C(c8ccccc8)CCCc8cc(C(=O)O)ccc87)cc6F)C5)CC4)C3)cc1)=N[C@@H](C)c1nnc(C)n1-2` [IV-70], for which the GI50 in assay [1] is < 0.05 µM; in assay [2], < 0.05 µM; in assay [3], 0.5 to 2.5 µM.

With `COc1cc(C2CCN(CC3CCC4(CC3)CN(c3ccc(C5=N[C@@H](C)c6nnc(C)n6-c6sc(C)c(C)c65)cc3)C4)CC2)ccc1C1=C(c2ccccc2Cl)CCCc2cc(C(=O)O)ccc21` [IV-71], the concentration for 50% growth inhibition (GI50) in assay [1] is < 0.05 µM; in assay [2], < 0.05 µM; in assay [3], 0.5 to 2.5 µM.

On to `Cc1sc2c(c1C)C(c1ccc(N3CC4(CC(CN5CCN(c6cc(F)c(C7=C(c8ccccc8F)CCCc8cc(C(=O)O)ccc87)cc6F)CC5)C4)C3)cc1)=N[C@@H](C)c1nnc(C)n1-2` [IV-72], for which the GI50 in assay [1] is < 0.05 µM; in assay [2] it was < 0.05 µM; in assay [3], 0.5 to 2.5 µM.

As to `Cc1cc(N2CCC(O)(CN3CCN(c4cc(F)c([C@@H]5c6ccc(O)cc6CC[C@@H]5c5ccccc5)cc4F)CC3)CC2)ccc1Oc1ccc(C(C)(C)O)cc1-c1cn(C)c(=O)c2[nH]ccc12` [V-37], the GI50 in assay [1] was < 0.05 µM; in assay [4], < 0.05 µM; in assay [3], 0.5 to 2.5 µM.

For the compound `Cc1cc(N2CCC(O)(CN3CCN(c4cc(F)c([C@H]5c6ccc(O)cc6CC[C@H]5c5ccccc5)cc4F)CC3)CC2)ccc1Oc1ccc(C(C)(C)O)cc1-c1cn(C)c(=O)c2[nH]ccc12` [V-38], the GI50 in assay [1], in assay [4] and in assay [3] was 0.05 to 0.5 µM in each case.

In the case of `Cc1cc(N2CCC(O)(CN3CCN(c4ccc([C@@H]5c6ccc(O)cc6CC[C@@H]5c5ccc(F)cc5F)cc4)CC3)CC2)ccc1Oc1ccc(C(C)(C)O)cc1-c1cn(C)c(=O)c2[nH]ccc12` [V-39], the GI50 in assay [1], in assay [4] and in assay [3] was 0.05 to 0.5 µM each time.

Regarding `Cc1cc(N2CCC(O)(CN3CCN(c4ccc([C@H]5c6ccc(O)cc6CC[C@H]5c5ccc(F)cc5F)cc4)CC3)CC2)ccc1Oc1ccc(C(C)(C)O)cc1-c1cn(C)c(=O)c2[nH]ccc12` [V-40], the results for the GI50 in assay [1], in assay [4] and in assay [3] were < 0.05 µM, < 0.05 µM and 0.5 to 2.5 µM, respectively.
